Data from patent US9061981B2, “Diphenyl substituted cyclohexane derivatives, useful as modulators of the estrogen receptors beta” (Acadia Pharmaceuticals Inc., priority 2011, dated 2015).
Several values for one entry are separate records, joined by “and”; a condition that tells them apart may be missing. Equal entries are not always repeated.

Key:
[1] = Microsomal bioavailability (Table 2); format: in vitro ADME; details: read-out: Microsomal bioavailability F (%)
ERβ [2] = target: T1, ERβ (Homo sapiens, UniProt Q92731); assay: R-SAT functional assay, ERβ; format: cell-based; design: expressed in transfected cells; host or cells: transient transfection
Text: (§1) R-SAT® (Receptor Selection and Amplification Technology) is a cell-based functional assay that allows one to monitor receptor-dependent proliferative responses and has been described elsewhere. […] This process is achieved by partial cellular transformation via loss of contact inhibition and growth factor dependency. Monitoring is achieved by transfecting the cells with a β-galactosidase reporter gene vector whose expression is under a constitutively active promoter. Briefly, NIH-3T3 fibroblasts were plated overnight in 96-wells plates in DMEM 10% calf serum (Hyclone) and grown to 60-70% confluency prior to transfection. Transient transfections were performed using Polyfect (Qiagen) according to manufacturer's instructions. Typically a transfection mix would consist of the receptor and the β-galactosidase expression vectors. Sixteen hours post-transfection, cells were incubated with different doses of ligand in DMEM containing 30% Ultraculture (Hyclone) and 0.4% calf serum (Hyclone) to generate a dose response curve. […] Plates were read using a microplate reader at 420 nm. Data from R-SAT® assays were fit to the equation: r=A+B(x/(x+c)), where A=minimum response, B=maximum response minus minimum response, c=EC50, r=response, and x=concentration of ligand. Curves were generated using the curve fitting softwares Excel Fit and GraphPad Prism (San Diego, Calif.). Luciferase Reporter Gene Assay

[3] = Metabolic stability in liver microsomes, rat; format: in vitro ADME; details: low value = metabolically stable
Procedure: (§2) Also the metabolic stability in liver microsomes was tested for some compounds.

ERα [4] = target: T2, ERα (Homo sapiens, UniProt P03372); assay: R-SAT functional assay, ERα; format: cell-based; design: expressed in transfected cells; host or cells: NIH-3T3 fibroblasts, transient transfection; details: NIH-3T3 cells; for EC50: na = not active, read-out: R-SAT Erα pEC50 (converted)
T2 sequence (P03372 1-595): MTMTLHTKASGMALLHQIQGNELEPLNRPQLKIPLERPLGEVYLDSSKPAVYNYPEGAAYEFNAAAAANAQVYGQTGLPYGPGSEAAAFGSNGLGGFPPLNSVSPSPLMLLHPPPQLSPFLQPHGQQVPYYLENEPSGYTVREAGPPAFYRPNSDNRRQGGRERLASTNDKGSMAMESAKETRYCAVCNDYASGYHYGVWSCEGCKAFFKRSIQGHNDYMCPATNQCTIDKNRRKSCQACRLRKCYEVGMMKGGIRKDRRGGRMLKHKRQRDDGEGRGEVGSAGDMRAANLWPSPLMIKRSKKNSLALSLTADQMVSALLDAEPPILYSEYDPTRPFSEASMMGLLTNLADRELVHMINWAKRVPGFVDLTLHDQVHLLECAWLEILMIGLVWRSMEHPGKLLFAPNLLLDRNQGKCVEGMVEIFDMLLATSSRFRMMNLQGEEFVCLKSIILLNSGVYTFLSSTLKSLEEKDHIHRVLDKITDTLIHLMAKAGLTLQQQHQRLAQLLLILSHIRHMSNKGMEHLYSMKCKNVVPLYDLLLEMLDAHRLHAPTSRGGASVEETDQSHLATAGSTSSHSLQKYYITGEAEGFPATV
Text: as §1

ERα [5] = target: T2, ERα; assay: Luciferase reporter gene assay (3*ERE) in HEK293 cells, ERα; format: cell-based; design: expressed in transfected cells; host or cells: transient transfection; details: 48 hours; for EC50: na = not active, read-out: Luciferase Erα pEC50 (converted)
Procedure: (§3) HEK293 cells were grown to 70% confluency in DMEM containing 10% calf serum (Hyclone) prior to transfection. On the day of transfection (day 1), expression vectors for ERα or ERβ were cotransfected along a construct containing a synthetic 3*ERE upstream of the luciferase gene (Panomics), using Polyfect (Qiagen) per manufacturer's recommendations (ERE being estrogen response element). Sixteen hours post-transfection, cells were incubated in serum free DMEM. […] Cells extracts were then obtained by lyzing and the Luciferase activity measured, all of these steps performed using a commercially available kit (Promega).

ERα [6] = target: T2, ERα; assay: Competitive 3H-estradiol binding assay, ERα; details: 1 nM 3H-estradiol, HEK293T cytosolic extract; read-out: Binding ERα pKi (converted)
Procedure: (§4) HEK293T cells were transiently transfected for 48 hours with expression vectors encoding ERα or ERβ, before being serum starved for 4-6 hours. Cells were then harvested by scraping in ice-cold PBS and subsequently lysed using a cold buffer containing 10 mM Tris pH 7.4, 1 mM EDTA, 1 mM DTT before being subjected to polytron twice for 10 seconds. Cytosolic extracts were isolated by centrifugation at 15000 g for 30 minutes at 4° C. Competitive binding of the test compounds or the estradiol control was performed on 20 μL extract by overnight incubation at 4° C. in a total volume of 100 μL containing 1 nM ^3H-estradiol (Perkin Elmer, Boston, Mass.). The bound fraction was separated from the unbound one by the addition of 100 μL of Dextran coated charcoal, incubated for 10 minutes and subsequent centrifugation at 1000 rpm for 10 minutes. Samples (100 μL per sample) were then analyzed by liquid scintillation. Data was then analyzed using the curve fitting software GraphPad Prism.

ERβ [7] = target: T1, ERβ; assay: Luciferase reporter gene assay (3*ERE) in HEK293 cells, ERβ; format: cell-based; design: expressed in transfected cells; host or cells: HEK293 cells, transient transfection; details: for Emax: read-out: Luciferase Erβ % Eff
Procedure: as §3

[8] = Metabolic stability in liver microsomes, human; format: in vitro ADME; details: low value = metabolically stable
Procedure: as §2

ERβ [9] = target: T1, ERβ; assay: Competitive 3H-estradiol binding assay, ERβ; design: expressed in transfected cells; host or cells: HEK293 cells, transient transfection
Procedure: as §4, with “Cells” for “HEK293T cells were transiently transfected for 48 hours with expression vectors encoding ERα or ERβ, before being serum starved for 4-6 hours. Cells”

ERβ [10] = target: T1, ERβ; assay: R-SAT functional assay, ERβ; format: cell-based; design: expressed in transfected cells; host or cells: transient transfection; remark: listed apart in the source
Taxol-induced allodynia = assay: Taxol-induced neuropathy model; format: in vivo, male SD rats; details: for effect on Taxol-induced allodynia: s.c. (gabapentin i.p.), Compound 8 at 10 and 30 mg/kg, 2 hours post-dose
Procedure: Neuropathy was induced in male SD rats by 4×1 mg/kg consecutive daily doses of taxol as described (Naguib M, Diaz P, Xu J J, Astruc-Diaz F, Craig S, Vivas-Mejia P, Brown D L. MDA7: a novel selective agonist for CB2 receptors that prevents allodynia in rat neuropathic pain models. Br J. Pharmacol. 2008 December; 155(7):1104-16). The presence of tactile allodynia (von Frey filament 50% response threshold of <5 g) was confirmed prior to inclusion in the study. Drugs were administered sub-cutaneously (s.c.) except gabapentin was given intra-peritoneally (i.p.). Doses are given in mg/kg. * p<0.05.
Allodynia was assessed by applying a light tactile stimulus (Von Frey hairs) to the plantar surface of the surgical paw until the 50% threshold was established. A positive response was recorded if the paw was sharply withdrawn. Eight VonFrey hairs were used (3.61, 3.84, 4.08, 4.31, 4.56, 4.74, 4.93 and 5.18). MPE (%) was calculated as [(Rdrug−Rveh)/(Rsham−Rveh)]*100% where Rveh was 4 and Rsham was 13. Repeat dosing (FIG. 10C) was performed by administering the indicated doses of Compound 8 once daily via the s.c. route. Efficacy was measured 2 hours post-dose.

[11] = Unidirectional permeability across MatTek EpiOral buccal tissue; format: in vitro ADME, human; details: test compound 10 μM co-dosed with controls atenolol and caffeine 100 μM, DPBS pH 7.4, 37° C.
Procedure: EpiOral→tissues plated in 24-well plates were obtained from MatTek Corporation (Ashland, Mass., USA). The assay buffer was Dulbeccos' Phosphate Buffered Saline (DPBS) without Ca & Mg chloride, pH 7.4. Each test compound was co-dosed with the two control compounds. Targeting dosing concentrations were 10 μM for each test compound and 100 μM for the two control compounds. Prior to the permeability assay onset, the tissues were preequilibrated in a pre-warmed EpiOral assay medium for one hour at 37° C. in a 5% CO2 incubator. The EpiOral assay medium was aspirated after the pre-equilibration, and the tissues were washed twice with the DPBS buffer. The receiver chambers were filled with 0.75 mL of the DPBS buffer, while the donor chambers received 0.4 mL of the dosing solutions. The assay plates were placed at 37° C. in a 5% CO2 incubator. The receiver samples (200 μL) were collected at 30, 60, and 120 minutes, and replaced with an equal volume of fresh pre-warmed receiver buffer (except for the last time point of 120 minutes). The donor sides were sampled at 0 and 120 minutes. The test compounds were then analyzed using LC-MS/MS.

[12] = NIH3T3, read-out: R-SAT Erβ % Eff
[13] = NIH3T3, NIH-3T3 cells, read-out: R-SAT Erβ % Eff

T1 sequence (Q92731 whole entry, species assumed): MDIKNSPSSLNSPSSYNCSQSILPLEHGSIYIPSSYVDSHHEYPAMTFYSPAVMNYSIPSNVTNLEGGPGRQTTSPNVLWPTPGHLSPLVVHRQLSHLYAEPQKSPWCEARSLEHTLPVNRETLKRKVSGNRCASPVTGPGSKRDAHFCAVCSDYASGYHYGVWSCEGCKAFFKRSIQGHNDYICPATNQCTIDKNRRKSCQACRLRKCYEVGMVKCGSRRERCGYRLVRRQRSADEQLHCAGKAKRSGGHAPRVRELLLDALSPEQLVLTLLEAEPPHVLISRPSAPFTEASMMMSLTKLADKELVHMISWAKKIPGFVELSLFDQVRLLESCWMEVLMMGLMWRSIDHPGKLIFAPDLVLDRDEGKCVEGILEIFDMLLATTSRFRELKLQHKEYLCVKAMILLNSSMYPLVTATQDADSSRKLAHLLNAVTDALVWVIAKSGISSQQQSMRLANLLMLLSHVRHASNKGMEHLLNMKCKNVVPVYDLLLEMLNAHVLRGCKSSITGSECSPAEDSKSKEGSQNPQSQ

| Structure (SMILES) | Microsomal bioavailability (predicted from microsomes) [1] | Emax (ERβ [2]; [12]) | microsomal CLint [3] | R-SAT Erα % Eff (ERα [4]) | EC50 (ERα [4]) | Luciferase Erα % Eff (ERα [5]) | Ki (ERα [6]) | EC50 (ERβ [7]) | Emax (ERβ [7]; HEK293, 48 h) | microsomal CLint [8] | Ki (ERβ [9]) | EC50 (ERβ [10]) | Emax (ERβ [2]; [13]) | Emax (ERβ [7]; HEK293 cells, 48 hours) | EC50 (ERα [5]) | effect on Taxol-induced allodynia (Taxol-induced allodynia) | apparent permeability coefficient (Papp) across MatTek EpiOral buccal tissues [11] | maximum effect (MPE) (Taxol-induced allodynia; gabapentin i.p.) |
| --- | --- | --- | --- | --- | --- | --- | --- | --- | --- | --- | --- | --- | --- | --- | --- | --- | --- | --- |
| COc1ccc(C2(c3ccccc3F)CCC(F)(F)CC2)cc1 [Compound 9, 1-(4,4-Difluoro-1-(4-methoxyphenyl)cyclohexyl)-2-fluorobenzene] | 19.6% | – | – | – | – | – | – | – | – | – | – | – | – | – | – | – | – | – |
| Oc1ccc(C2(c3ccccc3F)CCC(F)(F)CC2)cc1F [Compound 10, 4-(4,4-Difluoro-1-(2-fluorophenyl)cyclohexyl)-2-fluorophenol] | – | 57% | 95 µL/min/mg | 100% | 1000 nM | 2% | 251 nM | 2 nM | 55% | 11 µL/min/mg | 5.01 nM | 2.51 nM | – | – | – | – | – | – |
| Oc1ccc(C2(c3ccccc3Cl)CCC(F)(F)CC2)cc1 [Compound 12] | – | – | 147 µL/min/mg | 74% | – | 30% | 100 nM | 0.631 nM | – | – | 3.98 nM | 3.16 nM | 42% | 74% | – | – | – | – |
| Oc1ccc(C2(c3ccccc3Cl)CCC(F)(F)CC2)cc1F [Compound 14] | – | 60% | 113 µL/min/mg | 145% | 100 nM | 82% | 50.1 nM | 0.631 nM | 52% | – | 3.98 nM | 1.58 nM | – | – | – | – | – | – |
| Oc1ccc(C2(c3ccccc3F)CCCCC2)cc1 [Compound 152] | – | – | 405 µL/min/mg | 29% | 1580 nM | 48% | – | 20 nM | – | 27 µL/min/mg | 63.1 nM | 12.6 nM | 69% | 126% | 3980 nM | – | – | – |
| Oc1ccc(C2(c3ccccc3Cl)CCCCC2)cc1 [Compound 558] | 2% | – | – | 48% | 1260 nM | 37% | 1000 nM | 2.51 nM | – | – | 50.1 nM | 6.31 nM | 73% | 101% | 1580 nM | – | – | – |
| N#CC(Cc1ccc(O)cc1)c1ccc(O)cc1 (stereo not drawn) [DPN] | – | – | – | – | – | – | – | – | – | – | – | – | – | – | – | active | – | – |
| Cn1c(=O)c2c(ncn2C)n(C)c1=O [caffeine] | – | – | – | – | – | – | – | – | – | – | – | – | – | – | – | – | 27.5 ×10⁻⁶ cm/s and 22.3 ×10⁻⁶ cm/s | – |
| NCC1(CC(=O)O)CCCCC1 [gabapentin] | – | – | – | – | – | – | – | – | – | – | – | – | – | – | – | relatively ineffective | – | 39% |
